Experimental data as given in patent US12303508B2, “Combinatory treatment strategies of cancer based on RNA polymerase I inhibition” (THE JOHNS HOPKINS UNIVERSITY, priority 2016, dated 2025).

How the values were obtained:
MR49F cells = experiment: Cleaved caspase-3 and DNA staining, MR49F; format: cell-based; conditions: for massive apoptotic response, single treatment: either treatment alone
Excerpt: (§1) The inset bars represent sub-G1 cells. (B) The percentage of sub-G1 cells from A is plotted over time. (C) Staining of the cells for the apoptosis marker caspase-3. Immunofluorescence and Epifluorescence Microscopy. Cells grown on coverslips were fixed in 3.5% paraformaldehyde, permeabilized with 0.5% NP-40 and blocked with 3% BSA. Cells were stained for LC3-II and cleaved caspase-3 (Cell Signaling). Alexa 488-conjugated secondary antibodies were from Invitrogen. DNA was counterstained with DAPI (Invitrogen). Images were captured using Axioplan2 fluorescence microscope (Zeiss) equipped with AxioCam HRc CCD-camera and AxioVision 4.5 software using EC Plan-Neofluar 20× or 40× objectives (Zeiss).

LNCaP cells = experiment: Cleaved caspase-3 and DNA staining, LNCaP; format: cell-based; conditions: for massive apoptotic response, single treatment: either treatment alone
Excerpt: as §1

[1] = system: LNCaP prostate cancer cells; experiment: Cell viability (CellTiter-Blue) with Chou-Talalay combination index, LNCaP; format: cell-based; conditions: in combination with BMH-21, LNCaP cells, 48 h
Protocol: Cell viability was measured using Cell TiterBlue, and the mean of triplicate samples is shown. (B) Chou-Talalay combination index (CI) analysis was used to determine the drug interactions (blue curve). CI<1 denotes synergism. Red bar, C=1 additive effect. Fraction dead cells denotes the combinatory drug activity where 1 represents 100% kill.
(§2) Cells and Viability Assay. A375 melanoma and LNCaP prostate cancer cells were from American Type Culture Collection. HCT116 p53+/+ and −/− cells were from Dr. F. Bunz. MR49F cells were from Dr. M. Gleave. Cells were maintained at 37° C. in a humidified atmosphere containing 5% CO2. Cells were plated in 96-well plates at a density of 3,000 cells/well in triplicate and incubated for 48 h with the compounds. Viability was determined using CellTiter-Blue Cell Viability Assay (Promega) according to manufacturer's instructions. Chou-Talaley algorithm (Compusyn) was used to define the combination index (CI) where CI<1 denotes synergism, CI>1 denotes antagonism and CI=1 is additive. Effect denotes the combinatory drug activity where 1 represents 100% kill.

[2] = system: MR49F enzalutamide-resistant prostate cancer cells; experiment: Cell viability (CellTiter-Blue) with Chou-Talalay combination index, MR49F; format: cell-based; conditions: in combination with BMH-21, constant concentrations, 48 h, CI<1 synergism
Protocol: (§3) Cell viability was measured using Cell TiterBlue, and Chou-Talalay Combination Index analysis was performed. CI<1 denotes synergism. Effect denotes the combinatory drug activity where 1 represents 100% kill.
(§4) Cells were maintained at 37° C. in a humidified atmosphere containing 5% CO2. […] Effect denotes the combinatory drug activity where 1 represents 100% kill.

RPA194 = conditions: previously demonstrated; cited from earlier work
NCI60 cancer cell lines = conditions: previously demonstrated; cited from earlier work
tumor xenograft = conditions: previously demonstrated; cited from earlier work
[3] = system: A375 human melanoma cells; experiment: Cell viability (CellTiter-Blue) with Chou-Talalay combination index, A375; format: cell-based; conditions: in combination with BMH-21, constant concentrations, 48 h, CI<1 synergism, CI>1 antagonism
Protocol: as §4

[4] = system: HCT116 p53+/+ colon carcinoma cells; experiment: Cell viability (CellTiter-Blue) with Chou-Talalay combination index, HCT116 p53+/+; format: cell-based; conditions: in combination with BMH-21, HCT116 p53+/+ cells, 48 h
Protocol: (§5) Data represent N=2 biological assays each conducted in triplicate. […] Chou-Talalay plots are shown. Data represents N=2 biological assays each conducted in triplicate.
as §2
(§6) The inventors tested these combinations in three different cell lines (A375 melanoma cells, HCT116 p53+/+ and HCT116 p53−/− colon carcinoma cells).

[5] = system: HCT116 p53−/− colon carcinoma cells; experiment: Cell viability (CellTiter-Blue) with Chou-Talalay combination index, HCT116 p53-/-; format: cell-based; conditions: in combination with BMH-21, HCT116 p53−/− cells, 48 h
Protocol: as §5, §2, §6

LC3-II in MR49F cells = experiment: LC3-II western blotting and immunofluorescence staining; format: cell-based; conditions: 24 h
Protocol: as §3
as §1, with “Immunofluorescence” for “The inset bars represent sub-G1 cells. (B) The percentage of sub-G1 cells from A is plotted over time. (C) Staining of the cells for the apoptosis marker caspase-3. Immunofluorescence”
Immunoblotting. Cells were lysed in 0.5% NP-40 buffer (25 mM Tris-HCl, pH 8.0, 120 mM NaCl, 0.5% NP-40, 4 mM NaF, 100 μM Na3VO4, 100 KIU/ml aprotinin, 10 μg/ml leupeptin) or RIPA lysis buffer. Proteins were separated on SDS-PAGE, blotted, probed for respective proteins and detected using ECL (Amersham). The primary antibodies used for detection were LC3-II and cleaved caspase-3 (Cell Signaling). HRP-conjugated secondary antibodies were from DAKO or Santa Cruz Biotechnology.

[6] = BMH-21 plus Avasimibe combination

Compound | massive apoptotic response, single treatment (MR49F cells) | massive apoptotic response, single treatment (LNCaP cells) | drug interaction with BMH-21 (Chou-Talalay combination index on cell viability) [2] | drug interaction with BMH-21 (Chou-Talalay combination index on cell viability) [3] | drug interaction with BMH-21 (Chou-Talalay combination index on cell viability) [4] | drug interaction with BMH-21 (Chou-Talalay combination index on cell viability) [5] | also measured
CC(C)c1cc(C(C)C)c(CC(=O)NS(=O)(=O)Oc2c(C(C)C)cccc2C(C)C)c(C(C)C)c1 [Avasimibe] | not observed | not observed | prominent synergistic activities | – | – | – | apoptosis by cleaved caspase-3 and DNA staining, combination (MR49F cells; [6]): prominent cell apoptosis; apoptosis by cleaved caspase-3 and DNA staining, combination (LNCaP cells; [6]): prominent cell apoptosis; drug interaction with BMH-21 (cell viability, Chou-Talalay combination index) [1]: synergistic cancer cell death
CN(C)CCNC(=O)c1cccn2c(=O)c3cc4ccccc4cc3nc12 [BMH-21, 12H-Benzo[g]pyrido[2,1-b]quinazoline-4-carboxamide, N-[2(dimethylamino)ethyl]-12-oxo] | not observed | not observed | – | – | – | – | degradation of RPA194 (RPA194): causes proteasome-mediated degradation of RPA194; anticancer activity in NCI60 cancer cell lines (NCI60 cancer cell lines): broad and potent anticancer activity; tumor burden in mouse xenograft assays (tumor xenograft): reduced tumor burden
Cn1ncnc1[C@H]1c2n[nH]c(=O)c3cc(F)cc(c23)N[C@@H]1c1ccc(F)cc1 [BMN-673] | – | – | – | synergistically | synergistically | synergistically | –
CCN(CC)CCCC(C)Nc1ccnc2cc(Cl)ccc12 (centres unmarked) [chloroquine] | – | – | – | – | – | – | number of LC3-II puncta (LC3-II in MR49F cells; co-treatment with BMH-21 (1 μM)): significant increase; expression of LC3-II (marker for autophagy inhibition) (LC3-II in MR49F cells; combination with BMH-21 (1 μM), western blotting and immunofluorescence): increased
O=C(c1cc(Cc2n[nH]c(=O)c3ccccc23)ccc1F)N1CCN(C(=O)C2CC2)CC1 [olaparib, 4-[[3-[4-(cyclopropanecarbonyl)piperazine-1-carbonyl]-4-fluorophenyl]methyl]-2H-phthalazin-1-one] | – | – | – | synergistically | synergistically | synergistically | –
Bafilomycin | – | – | synergistic cell death | – | – | – | –
